Data from US4863951A, “Pharmacologically active amino-5,6,7,8-tetrahydronaphtho [2,3-B] furan compounds” (ADIR Et Cie, priority 1987, dated 1989).
Structures can show the parent of a compound that is named as a salt. Where two headings read alike, the source gives them in different places.

Key:
[1] = system: apomorphine-induced rearing-up; experiment: Antagonism of apomorphine-induced rearing-up behavior in mice; assay type: in vivo; conditions: apomorphine 0.75 mg.kg^-1 s.c.; for % inhibition of rearing-up: hydrochloride
Method: Studied in the test of antagonism of apomorphine-induced rearing-up following the subcutaneous administration of a dose of 0.75 mg.kg^-1 of this substance in mice, the compounds of general formula I act in a clear-cut manner at doses greater than or equal to 2.5 mg.kg^-1 (i.p.). The same results are observed when the compounds of general formula I are administered orally at a dose of 20 mg.kg^-1. The activity of the compounds was assessed according to the method described by Protais P, Costentin J and Schwartz J. C. in Psychopharmacology (1976), 50, p. 1-6.
(§1) (s=significant difference, p<0.05).

[2] = system: aggression of isolated, bulbectomized rats; experiment: Antiaggressive effects: aggression of isolated, bulbectomized rats; assay type: in vivo; conditions: i.p.
Excerpt: (§2) The antiaggressive effects of the compounds of the invention were investigated by two methods, one of them testing for an inhibition of aggressive behavior in peviously isolated mice (Yen C. Y., Stanger A. L., and Millman N, Arch. Int. Pharmacodyn. Therap. (1959), 123, p. 179-185), and the other in isolated and bulbectomized rats (Garattini S. and Sigg E. B. "Aggressive Behaviour" p. 47-55 Ed. Excerpta Medica Found., Amsterdam, 1969).
(§3) (Tables IX and X, s=significant, p<0.05).

[3] = system: isolation-induced aggression; experiment: Antiaggressive effects: isolation-induced aggression in mice; assay type: in vivo; conditions: isolated mice, i.p.
Excerpt: as §2, §3

[4] = system: apomorphine-induced hypothermia; experiment: Antagonism with respect to apomorphine-induced hypothermia in mice; assay type: in vivo; conditions: apomorphine 1 mg.kg^-1 s.c., after 2 hours; for % antagonism of hypothermia: hydrochloride
Method: Testing for an antagonism with respect to apomorphine-induced hypothermia in mice was performed according to the method described by CHERMAT R. and PONCELET M. in J. Pharmac. (1983), 14, No. 1, p. 93-97. The dose of apomorphine administered subcutaneously was 1 mg.kg^-1. Tables VII and VIII show the percentage antagonism of the hypothermia observed after 2 hours.

[5] = system: ponto-geniculo-occipital (P.G.O.) waves induced by Ro4-1284; experiment: Antagonism of the ponto-geniculo-occipital (P.G.O.) waves induced by Ro4-1284; assay type: in vivo; conditions: Felis catus, iv, cats, i.v., read-out: ED50 (effective dose inhibiting by 50% the number of P.G.O. waves)
Method: (§4) The antidepressant effects of the compounds of the invention were investigated by assessing the antagonism of reserpine-induced hypothermia and the antagonism of the ponto-geniculo-occipital waves induced by the compound Ro4-1284 in cats.
This study was performed according to the method of Ruch-Monachon M. A., Jalfre M. and Haefely W. described in Arch. Int. Pharm. Therap., (1976), 219, No. 2, p. 251-346, and it enabled the effective dose (i.v) inhibiting by 50% (ED50) the number of P.G.O waves to be assessed.

[6] = system: apomorphine-induced stereotypy; experiment: Antagonism of apomorphine-induced stereotypy in rats; assay type: in vivo; conditions: Rattus norvegicus, ip, 0.5 h, apomorphine 1.5 mg.kg^-1 i.p., 30 minutes
Method: (§5) The inhibitory activity of the compounds of the invention with respect to apomorphine- or amphetamine-induced stereotypy in rats was assessed using the scale of scoring of stereotyped movements described by Quinton R. M. and Halliwell G. in Nature (1963), 200, p. 178-179.
Apomorphine or amphetamine was administered to the animals intraperitoneally at a dose of 1.5 mg.kg^-1. The percentage inhibition (-) or potentiation (+) of the stereotypy score (% ISS) shown in Tables IV and V for apomorphine corresponds to a measurement time of 30 minutes. In contrast, the percentage inhibition of the stereotypy score shown in Table VI for amphetamine corresponds to a measurement time of 3 hours. […]

[7] = system: reserpine-induced hypothermia; experiment: Antagonism of reserpine-induced hypothermia; assay type: in vivo, Swiss CD male mice; conditions: mice, reserpine 2.5 mg.kg^-1 i.p.
Method: as §4
The study is carried out on Swiss CD male mice (27-28 g). After distribution into groups of 10 animals each, reserpine is injected intraperitoneally at a dose of 2.5 mg.kg^-1. Three hours later, the compounds undergoing trial are administered intraperitoneally. The rectal temperature of the animals is measured one hour and two hours after the second treatment, and compared with the initial temperature To of these same animals, measured immediately before the administration of the compounds undergoing trial.

[8] = system: amphetamine-induced stereotypy; experiment: Antagonism of amphetamine-induced stereotypy in rats; assay type: in vivo; conditions: 3 hours
Method: as §5
Apomorphine or amphetamine was administered to the animals intraperitoneally at a dose of 1.5 mg.kg^-1. The percentage inhibition (-) or potentiation (+) of the stereotypy score (% ISS) shown in Tables IV and V for apomorphine corresponds to a measurement time of 30 minutes. In contrast, the percentage inhibition of the stereotypy score shown in Table VI for amphetamine corresponds to a measurement time of 3 hours.
as §1

[9] = system: interoceptive stimulus of apomorphine; experiment: Drug discrimination in rats (generalization with apomorphine); assay type: in vivo; conditions: 2.5 mg.kg^-1 i.p., 30 minutes before test, hydrochloride
Method: Rats were trained to discriminate between the effect of the interoceptive stimulus of apomorphine (0.2 mg.kg^-1 i.p.) and that of physiological saline, according to a principle described by Colpaert F. in "Drug discrimination application in C.N.S. Pharmacology" Ed. Elsevier Biomedical 1982, Amsterdam. […]
Under the experimental conditions employed, the behavior shown by the animals coincides with that noted in the case of administration of apomorphine.

CN(C)C1CCc2cc3c(cc2C1)OCC3 (racemic) [Example 6, dl-7-(N,N-Dimethylamino)-2,3,5,6,7,8-hexahydronaphtho[2,3-b]furan hydrochloride] was tested, and the change in vivo at 2.5 mg/kg ([1]; Mus musculus, ip, read-out: % inhibition of rearing-up, mice, i.p. dose 2.5 mg.kg^-1) was -17%, the change in vivo at 5 mg/kg ([1]; Mus musculus, ip, read-out: % inhibition of rearing-up, mice, i.p. dose 5 mg.kg^-1) was -54% and the change in vivo at 10 mg/kg ([1]; Mus musculus, ip, read-out: % inhibition of rearing-up, mice, i.p. dose 10 mg.kg^-1) was -94%. The change in vivo at 20 mg/kg ([1]; Mus musculus, ip, read-out: % inhibition of rearing-up, mice, i.p. dose 20 mg.kg^-1) was -100%, the “% of rats rendered non-aggressive” value ([2]; 2.5 mg.kg^-1) was 30% and the “% of pairs of mice showing no sign of fighting” value ([3]; 2.5 mg.kg^-1) was 40%. For the same compound, the “% of pairs of mice showing no sign of fighting” value ([3]; 5 mg.kg^-1) was 44%, the “% of pairs of mice showing no sign of fighting” value ([3]; 10 mg.kg^-1) was 78% and the change in vivo at 2.5 mg/kg ([4]; Mus musculus, ip, 2 h, read-out: % antagonism of hypothermia, mice, i.p. dose 2.5) was 6%. It also gave a change in vivo at 5 mg/kg ([4]; Mus musculus, ip, 2 h, read-out: % antagonism of hypothermia, mice, i.p. dose 5) of -6%, a change in vivo at 10 mg/kg ([4]; Mus musculus, ip, 2 h, read-out: % antagonism of hypothermia, mice, i.p. dose 10) of -25% and a change in vivo at 20 mg/kg ([4]; Mus musculus, ip, 2 h, read-out: % antagonism of hypothermia, mice, i.p. dose 20) of -48%. It also gave an ED50 [5] of 0.498 mg/kg, a change in vivo at 10 mg/kg ([6]; read-out: % ISS (inhibition (-) or potentiation (+) of the stereotypy score), rats, i.p. dose 10 mg.kg^-1) of -48% and a change in vivo at 20 mg/kg ([6]; read-out: % ISS (inhibition (-) or potentiation (+) of the stereotypy score), rats, i.p. dose 20 mg.kg^-1) of -58%. For the same compound, the “% inhibition of hypothermia” value ([7]; 2.5 mg.kg^-1 i.p.) was -1%, the “% inhibition of hypothermia” value ([7]; 5 mg.kg^-1 i.p.) was “+1%” and the “% inhibition of hypothermia” value ([7]; 10 mg.kg^-1 i.p.) was -24%. The “% inhibition of hypothermia” value ([7]; 20 mg.kg^-1 i.p.) was -20%.

O=C(O)CCCCCCNC1CCc2cc3c(cc2C1)OCC3 (racemic) [Example 12, dl-7-{N-(2,3,5,6,7,8-Hexahydronaphtho[2,3-b]furan-7-yl)amino}heptanoic acid hydrochloride] gave a change in vivo at 10 mg/kg ([1]; Mus musculus, ip, mice, i.p. dose 10 mg.kg^-1, read-out: % inhibition of rearing-up) of -17%, a change in vivo at 20 mg/kg ([1]; Mus musculus, ip, mice, i.p. dose 20 mg.kg^-1, read-out: % inhibition of rearing-up) of -20% and a change in vivo at 10 mg/kg ([4]; Mus musculus, ip, mice, i.p. dose 10, read-out: % antagonism of hypothermia) of -4%. For the same compound, the change in vivo at 20 mg/kg ([4]; Mus musculus, ip, mice, i.p. dose 20, read-out: % antagonism of hypothermia) was -2%, the ED50 [5] was over 2.52 mg/kg and the “% ISS (inhibition (-) or potentiation (+) of the stereotypy score)” value ([8]; i.p. dose 5 mg.kg^-1, amphetamine 1.5 mg.kg^-1 i.p.) was “+11%”. The “% ISS (inhibition (-) or potentiation (+) of the stereotypy score)” value ([8]; i.p. dose 10 mg.kg^-1, amphetamine 1.5 mg.kg^-1 i.p.) was “+14%”, the change in vivo at 10 mg/kg ([6]; rats, i.p. dose 10 mg.kg^-1, read-out: % ISS (inhibition (-) or potentiation (+) of the stereotypy score)) was 19% and the change in vivo at 20 mg/kg ([6]; rats, i.p. dose 20 mg.kg^-1, read-out: % ISS (inhibition (-) or potentiation (+) of the stereotypy score)) was -3%. The “% inhibition of hypothermia” value ([7]; 5 mg.kg^-1 i.p.) was -23%, the “% inhibition of hypothermia” value ([7]; 10 mg.kg^-1 i.p.) was -45% and the “% inhibition of hypothermia” value ([7]; 20 mg.kg^-1 i.p.) was -18%.

With NC1CCc2cc3c(cc2C1)OCC3 (stereo not drawn) [Example 3, d-7-Amino-2,3,5,6,7,8-hexahydronaphtho[2,3-b]furan hydrochloride] the “% inhibition of rearing-up” value ([1]; mice, i.p. dose 10 mg.kg^-1) was -72%, the “% inhibition of rearing-up” value ([1]; mice, i.p. dose 20 mg.kg^-1) was -79% and the “% of animals which generalize” value [9] was 88%. The “Number of animals showing the effect of generalization with apomorphine” value [9] was 8/9, the “% of rats rendered non-aggressive” value ([2]; 2.5 mg.kg^-1, hydrochloride) was 64% and the “% of pairs of mice showing no sign of fighting” value ([3]; 2.5 mg.kg^-1, hydrochloride) was 56%. The “% of pairs of mice showing no sign of fighting” value ([3]; 5 mg.kg^-1, hydrochloride) was 78%, the “% antagonism of hypothermia” value ([4]; mice, i.p. dose 2.5) was -72% and the “% antagonism of hypothermia” value ([4]; mice, i.p. dose 5) was -79%. The “% antagonism of hypothermia” value ([4]; mice, i.p. dose 10) was -91%, the “% antagonism of hypothermia” value ([4]; mice, i.p. dose 20) was -86% and the ED50 [5] was 0.13 mg/kg.
